{
  "source": "patent US20080214555A1",
  "about": "(priority 2007, published 2008)",
  "system": "patients with non-ST elevation acute coronary syndrome",
  "test": "MERLIN-TIMI 36: arrhythmias on 7 day continuous ECG (Holter) recording",
  "assay_type": "in vivo, human",
  "procedure": "Continuous ECG (Holter) recording was performed for the first 7 days after randomization. Because of the known prolongation of the QT interval with ranolazine, analyses of a prespecified set of arrhythmias were a major objective of the trial. All arrhythmias were evaluated in the TIMI ECG Core Laboratory by cardiologists blinded to treatment and outcomes.\nContinuous ECG (cECG or Holter) recording was performed for the first 7 days after randomization. Prespecified arrhythmia analyses were evaluated by a core laboratory blinded to treatment and outcomes.",
  "key": {"[1]": {"conditions": "Example 8 table, first 7 days, n = 3162"}, "[2]": {"conditions": "Table 24, all patients dosed, n = 3268"}, "[3]": {"conditions": "incidence of ventricular tachyarrhythmias table"}},
  "data": [
    {"smiles": "COc1ccccc1OCC(O)CN1CCN(CC(=O)Nc2c(C)cccc2C)CC1", "note": "(racemic) [Ranolazine, (±)-N-(2,6-dimethylphenyl)-4-[2-hydroxy-3-(2-methoxyphenoxy)-propyl]-1-piperazineacetamide]", "values": [
      {"measurement": "Episode of ventricular arrhythmia lasting >=8 beats, %", "setting": "Example 8", "result": 5.5, "unit": "%"},
      {"measurement": "Episode of ventricular arrhythmia lasting >=8 beats, number of patients", "setting": "Example 8", "result": 175},
      {"measurement": "New-onset atrial fibrillation, %", "setting": "Example 8", "result": 1.7, "unit": "%"},
      {"measurement": "New-onset atrial fibrillation, number of patients", "setting": "Example 8", "result": 55},
      {"measurement": "Pauses >=3 seconds, %", "setting": "Example 8", "result": 3.1, "unit": "%"},
      {"measurement": "Pauses >=3 seconds, number of patients", "setting": "Example 8", "result": 97},
      {"measurement": "Supraventricular tachycardia, %", "setting": "Example 8", "result": 43.2, "unit": "%"},
      {"measurement": "Supraventricular tachycardia, number of patients", "setting": "Example 8", "result": 1413},
      {"measurement": "Any ventricular tachycardia >= 3 beats, %", "setting": "[1]", "result": "(29.0) %"},
      {"measurement": "Any ventricular tachycardia >= 3 beats, number", "setting": "[1]", "result": 948},
      {"measurement": "Brady, Complete heart block, or Pause >= 2.5 sec, %", "setting": "[1]", "result": "(38.5) %"},
      {"measurement": "Brady, Complete heart block, or Pause >= 2.5 sec, number", "setting": "[1]", "result": 1257},
      {"measurement": "Bradycardia < 45 bpm for at least 4 beats, %", "setting": "[1]", "result": "(37.8) %"},
      {"measurement": "Bradycardia < 45 bpm for at least 4 beats, number", "setting": "[1]", "result": 1236},
      {"measurement": "Clinically Significant Arrhythmia on Holter, %", "setting": "[1]", "result": "(71.3) %"},
      {"measurement": "Clinically Significant Arrhythmia on Holter, number", "setting": "[1]", "result": 2330},
      {"measurement": "Pause >3 secs, %", "setting": "[1]", "result": "(3.1) %"},
      {"measurement": "Pause >3 secs, number", "setting": "[1]", "result": 97},
      {"measurement": "Pause >3 secs: AV node block, %", "setting": "[1]", "result": "(1.0) %"},
      {"measurement": "Pause >3 secs: AV node block, number", "setting": "[1]", "result": 31},
      {"measurement": "Pause >3 secs: Other, %", "setting": "[1]", "result": "(0.1) %"},
      {"measurement": "Pause >3 secs: Other, number", "setting": "[1]", "result": 2},
      {"measurement": "Pause >3 secs: Sinoatrial node block, %", "setting": "[1]", "result": "(2.0) %"},
      {"measurement": "Pause >3 secs: Sinoatrial node block, number", "setting": "[1]", "result": 64},
      {"measurement": "Polymorphic VT >= 8 beats, %", "setting": "[1]", "result": "(1.2) %"},
      {"measurement": "Polymorphic VT >= 8 beats, number", "setting": "[1]", "result": 38},
      {"measurement": "Sustained VT (>=30 secs), %", "setting": "[1]", "result": "(0.44) %"},
      {"measurement": "Sustained VT (>=30 secs), number", "setting": "[1]", "result": 14},
      {"measurement": "Sustained VT (>=30 secs): Monomorphic, %", "setting": "[1]", "result": "(0.12) %"},
      {"measurement": "Sustained VT (>=30 secs): Monomorphic, number", "setting": "[1]", "result": 4},
      {"measurement": "Sustained VT (>=30 secs): Polymorphic, %", "setting": "[1]", "result": "(0.32) %"},
      {"measurement": "Sustained VT (>=30 secs): Polymorphic, number", "setting": "[1]", "result": 10},
      {"measurement": "Triplets, %", "setting": "[1]", "result": "(46.9) %"},
      {"measurement": "Triplets, number", "setting": "[1]", "result": 1532},
      {"measurement": "VT >= 4 beats, %", "setting": "[1]", "result": "(23.6) %"},
      {"measurement": "VT >= 4 beats, number", "setting": "[1]", "result": 772},
      {"measurement": "VT >= 8 beats (<30 secs), %", "setting": "[1]", "result": "(5.5) %"},
      {"measurement": "VT >= 8 beats (<30 secs), number", "setting": "[1]", "result": 175},
      {"measurement": "Episode of ventricular tachycardia lasting >8 beats, %", "setting": "Example 9", "result": 5.3, "unit": "%"},
      {"measurement": "Episode of ventricular tachycardia lasting >8 beats, number of patients", "setting": "Example 9", "result": 166},
      {"measurement": "New-onset atrial fibrillation, %", "setting": "Example 9", "result": 1.7, "unit": "%"},
      {"measurement": "New-onset atrial fibrillation, number of patients", "setting": "Example 9", "result": 55},
      {"measurement": "Pauses >3 seconds, %", "setting": "Example 9", "result": 3.1, "unit": "%"},
      {"measurement": "Pauses >3 seconds, number of patients", "setting": "Example 9", "result": 97},
      {"measurement": "Supraventricular tachycardia, %", "setting": "Example 9", "result": 44.7, "unit": "%"},
      {"measurement": "Supraventricular tachycardia, number of patients", "setting": "Example 9", "result": 1413},
      {"measurement": "Incidence of ventricular tachycardia", "setting": "No. of beats ≧8", "result": 5.3, "unit": "%"},
      {"measurement": "Incidence of ventricular tachycardia", "setting": "No. of beats ≧10", "result": 3.5, "unit": "%"},
      {"measurement": "Incidence of ventricular tachycardia", "setting": "No. of beats ≧15", "result": 1.3, "unit": "%"},
      {"measurement": "Incidence of ventricular tachycardia", "setting": "No. of beats ≧20", "result": 0.9, "unit": "%"},
      {"measurement": "Any Clinically Significant Arrhythmia during 7 day Holter, %", "setting": "[2]", "result": "(71.3%)"},
      {"measurement": "Any Clinically Significant Arrhythmia during 7 day Holter, number", "setting": "[2]", "result": 2330},
      {"measurement": "Bradycardic episode during 7 day Holter, %", "setting": "[2]", "result": "(38.5%)"},
      {"measurement": "Bradycardic episode during 7 day Holter, number", "setting": "[2]", "result": 1257},
      {"measurement": "New onset atrial fibrillation during 7 day Holter, %", "setting": "[2]", "result": "(1.7%)"},
      {"measurement": "New onset atrial fibrillation during 7 day Holter, number", "setting": "[2]", "result": 55},
      {"measurement": "Supraventricular tachycardia (any SVT >= 120 bpm) during 7 day Holter, %", "setting": "[2]", "result": "(43.2%)"},
      {"measurement": "Supraventricular tachycardia (any SVT >= 120 bpm) during 7 day Holter, number", "setting": "[2]", "result": 1413},
      {"measurement": "Ventricular tachycardia (any VT >= 100 bpm >= 3 beats) during 7 day Holter, %", "setting": "[2]", "result": "(29.0%)"},
      {"measurement": "Ventricular tachycardia (any VT >= 100 bpm >= 3 beats) during 7 day Holter, number", "setting": "[2]", "result": 948},
      {"measurement": "Polymorphic VT >= 8 beats on cECG, %", "setting": "[3]", "result": "(1.2) %"},
      {"measurement": "Sustained VT (>=30 sec) on cECG, %", "setting": "[3]", "result": "(0.44) %"},
      {"measurement": "VT ≧ 3 beats (≧100 b/m) on cECG, %", "setting": "[3]", "result": "(52.1) %"},
      {"measurement": "VT ≧ 4 beats (≧100 b/m) on cECG, %", "setting": "[3]", "result": "(20.9) %"},
      {"measurement": "VT ≧ 8 beats (<30 sec) on cECG, %", "setting": "[3]", "result": "(5.3) %"},
      {"measurement": "Polymorphic VT >= 8 beats on cECG, Δ n", "setting": "placebo vs ranolazine", "result": 10},
      {"measurement": "Sustained VT (>=30 sec) on cECG, Δ n", "setting": "placebo vs ranolazine", "result": 0},
      {"measurement": "VT ≧ 3 beats (≧100 b/m) on cECG, Δ n", "setting": "placebo vs ranolazine", "result": 347},
      {"measurement": "VT ≧ 4 beats (≧100 b/m) on cECG, Δ n", "setting": "placebo vs ranolazine", "result": 279},
      {"measurement": "VT ≧ 8 beats (<30 sec) on cECG, Δ n", "setting": "placebo vs ranolazine", "result": 99},
      {"measurement": "Polymorphic VT >= 8 beats on cECG, Δ (%)", "setting": "ranolazine vs placebo", "result": "(−21) %"},
      {"measurement": "VT ≧ 3 beats (≧100 b/m) on cECG, Δ (%)", "setting": "ranolazine vs placebo", "result": "(−17) %"},
      {"measurement": "VT ≧ 4 beats (≧100 b/m) on cECG, Δ (%)", "setting": "ranolazine vs placebo", "result": "(−30) %"},
      {"measurement": "VT ≧ 8 beats (<30 sec) on cECG, Δ (%)", "setting": "ranolazine vs placebo", "result": "(−37) %"},
      {"measurement": "Incidence of ventricular tachycardia of >8 beats", "setting": "subgroup baseline QTc >450 msec", "result": 5.6, "unit": "%"},
      {"measurement": "Incidence of ventricular tachycardia of >8 beats", "setting": "subgroup baseline QTc ≦450 msec", "result": 5.2, "unit": "%"},
      {"measurement": "Incidence of ventricular tachycardia of >8 beats", "setting": "subgroup ejection fraction <40%", "result": 8.8, "unit": "%"},
      {"measurement": "Incidence of ventricular tachycardia of >8 beats", "setting": "subgroup ejection fraction ≧40%", "result": 5.3, "unit": "%"}
    ]}
  ]
}
